Like-named read-outs stand apart in the source and are kept apart here.
Experiments:
[1] = system: NCI-H358-AMGR drug-resistant cell line; test: NCI-H358-AMGR drug-resistant cell proliferation inhibitory activity test; format: cell-based; conditions: NCI-H358-AMGR drug-resistant cells, 3 days incubation, CellTiter-Glo
Procedure, shortened: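 Luminescent CellTiter-Glo read-out after 3-day, 37° C compound exposure (8 points, 5-fold series) of AMG510-resistant NCI-H358 cells plated at 4×10^3 per well.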

[2] = system: NCI-H358 cells (KRAS G12C mutant); test: NCI-H358 cell proliferation inhibition (CellTiter-Glo); format: cell-based; conditions: read-out: NCI-H358 (IC50)
PI3Kδ = PI3Kδ (Homo sapiens (Human), UniProt O00329); test: Inhibition of PI3Kδ efficacy assay (ADP-Glo kinase assay); format: biochemical; conditions: read-out: PI3Kδ inhibitory activity (IC50)
Procedure, shortened: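 Luminescent ADP-Glo readout of PI3Kδ: after a 60 min RT reaction with PI/ATP substrate, ATP depletion (40 min) and ADP detection (40 min) steps followed. Compounds tested as eight five-fold serial dilutions; inhibition rates fitted to log(inhibitor) vs. response, variable slope, for IC50.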

KRAS^G12C-SOS1 = KRAS^G12C-SOS1 (Homo sapiens (Human), UniProt P01116, G12C); test: HTRF KRAS G12C/SOS1 binding assay; conditions: Table 5
Procedure, shortened: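 Compound was serially diluted five-fold over eight points, with a 2 mM DMSO stock. After anti-tag-Tb3+ and anti-tag-XL665 were added, plates were incubated 3 h at 4 °C and read by HTRF (ex 337 nm, em 620/665 nm ratio). IC50 values come from four-parameter variable-slope fits.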

PI3Kα = PI3Kα (Homo sapiens (Human), UniProt P42336); test: Inhibition of PI3Kα efficacy assay (ADP-Glo kinase assay); format: biochemical; conditions: read-out: PI3Kα inhibitory activity (IC50)
Procedure, shortened: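 Eight five-fold dilutions of compound (2 mM DMSO stock) tested; kinase reaction with PI and ATP ran 60 min at RT, followed by ADP-Glo and detection reagent steps of 40 min each. Four-parameter logistic fitting gave IC50 values.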

[3] = Homo sapiens, NCI-H358, 72 h, H358 cells (G12C mutation), 3 days, Table 6

PI3Kδ, sequence (O00329 whole entry): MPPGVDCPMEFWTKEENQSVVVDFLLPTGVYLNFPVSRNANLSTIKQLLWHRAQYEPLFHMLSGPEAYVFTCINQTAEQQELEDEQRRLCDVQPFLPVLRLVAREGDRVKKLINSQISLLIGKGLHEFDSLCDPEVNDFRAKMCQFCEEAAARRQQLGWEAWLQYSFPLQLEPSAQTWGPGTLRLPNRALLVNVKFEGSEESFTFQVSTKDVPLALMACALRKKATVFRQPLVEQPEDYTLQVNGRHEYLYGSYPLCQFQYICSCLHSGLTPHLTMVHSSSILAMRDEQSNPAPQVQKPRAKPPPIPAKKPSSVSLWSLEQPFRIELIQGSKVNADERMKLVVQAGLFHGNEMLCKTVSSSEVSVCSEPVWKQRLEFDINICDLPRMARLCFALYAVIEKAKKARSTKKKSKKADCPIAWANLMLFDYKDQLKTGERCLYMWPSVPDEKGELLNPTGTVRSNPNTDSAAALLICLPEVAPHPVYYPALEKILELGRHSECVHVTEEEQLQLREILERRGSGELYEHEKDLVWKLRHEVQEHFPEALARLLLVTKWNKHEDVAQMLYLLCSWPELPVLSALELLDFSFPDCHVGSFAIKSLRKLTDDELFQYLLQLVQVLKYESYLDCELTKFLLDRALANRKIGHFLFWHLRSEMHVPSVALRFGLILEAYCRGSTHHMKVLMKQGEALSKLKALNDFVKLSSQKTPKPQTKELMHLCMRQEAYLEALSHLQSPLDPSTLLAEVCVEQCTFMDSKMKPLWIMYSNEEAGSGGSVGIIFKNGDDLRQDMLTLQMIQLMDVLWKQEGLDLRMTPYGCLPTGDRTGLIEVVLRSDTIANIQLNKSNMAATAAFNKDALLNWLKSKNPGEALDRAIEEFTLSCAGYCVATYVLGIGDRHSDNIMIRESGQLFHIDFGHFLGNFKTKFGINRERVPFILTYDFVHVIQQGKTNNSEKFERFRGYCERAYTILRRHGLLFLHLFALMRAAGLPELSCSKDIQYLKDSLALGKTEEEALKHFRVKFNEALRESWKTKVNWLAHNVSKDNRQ
PI3Kδ, sequence (P27986 whole entry partner): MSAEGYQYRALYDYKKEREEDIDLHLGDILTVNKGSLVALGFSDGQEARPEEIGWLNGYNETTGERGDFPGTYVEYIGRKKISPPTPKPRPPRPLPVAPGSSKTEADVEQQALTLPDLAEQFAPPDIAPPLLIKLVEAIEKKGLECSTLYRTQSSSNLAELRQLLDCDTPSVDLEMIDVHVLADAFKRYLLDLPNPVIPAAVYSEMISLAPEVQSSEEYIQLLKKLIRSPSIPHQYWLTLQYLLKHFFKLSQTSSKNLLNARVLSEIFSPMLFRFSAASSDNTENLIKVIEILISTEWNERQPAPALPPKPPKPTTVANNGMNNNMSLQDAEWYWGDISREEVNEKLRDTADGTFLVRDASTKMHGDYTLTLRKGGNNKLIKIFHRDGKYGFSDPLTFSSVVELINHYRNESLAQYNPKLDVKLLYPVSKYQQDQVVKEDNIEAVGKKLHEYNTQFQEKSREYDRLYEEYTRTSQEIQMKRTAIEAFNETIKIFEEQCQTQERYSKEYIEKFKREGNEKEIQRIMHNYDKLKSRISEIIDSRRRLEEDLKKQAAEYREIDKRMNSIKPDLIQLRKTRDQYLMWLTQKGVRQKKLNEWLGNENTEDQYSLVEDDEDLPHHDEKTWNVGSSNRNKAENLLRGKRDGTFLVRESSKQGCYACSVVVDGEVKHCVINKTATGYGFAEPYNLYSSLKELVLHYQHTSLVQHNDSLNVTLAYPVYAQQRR
PI3Kα, sequence (P42336 whole entry): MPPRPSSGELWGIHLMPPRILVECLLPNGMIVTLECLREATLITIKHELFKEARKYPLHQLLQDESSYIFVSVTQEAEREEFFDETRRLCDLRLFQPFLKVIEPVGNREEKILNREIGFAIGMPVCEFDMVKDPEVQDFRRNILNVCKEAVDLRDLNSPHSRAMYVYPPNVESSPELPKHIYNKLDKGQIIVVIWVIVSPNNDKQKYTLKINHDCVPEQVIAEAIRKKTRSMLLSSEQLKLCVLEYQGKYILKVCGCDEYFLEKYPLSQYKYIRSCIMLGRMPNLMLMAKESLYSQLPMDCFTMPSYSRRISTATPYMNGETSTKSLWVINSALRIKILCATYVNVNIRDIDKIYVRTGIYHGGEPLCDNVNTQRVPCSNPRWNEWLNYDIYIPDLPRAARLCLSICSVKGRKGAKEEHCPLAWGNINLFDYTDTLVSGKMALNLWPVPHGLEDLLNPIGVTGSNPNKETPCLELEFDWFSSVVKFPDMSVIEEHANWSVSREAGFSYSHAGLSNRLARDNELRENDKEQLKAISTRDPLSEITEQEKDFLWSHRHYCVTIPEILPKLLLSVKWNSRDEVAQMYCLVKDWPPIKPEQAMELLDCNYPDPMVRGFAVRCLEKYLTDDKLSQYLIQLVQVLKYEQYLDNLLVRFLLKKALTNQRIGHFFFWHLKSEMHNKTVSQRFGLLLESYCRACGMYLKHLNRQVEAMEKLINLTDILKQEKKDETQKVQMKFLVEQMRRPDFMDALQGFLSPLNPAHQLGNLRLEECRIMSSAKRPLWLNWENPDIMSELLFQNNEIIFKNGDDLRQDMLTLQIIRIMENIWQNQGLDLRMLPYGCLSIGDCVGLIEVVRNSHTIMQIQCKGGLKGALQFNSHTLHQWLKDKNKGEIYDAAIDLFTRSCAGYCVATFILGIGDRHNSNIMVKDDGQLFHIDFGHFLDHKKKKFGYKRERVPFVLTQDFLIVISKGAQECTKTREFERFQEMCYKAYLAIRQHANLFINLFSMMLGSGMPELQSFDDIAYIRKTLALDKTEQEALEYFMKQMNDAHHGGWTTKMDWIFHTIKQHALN
PI3Kα, sequence (P27986 whole entry partner): as the sequence (P27986 whole entry partner) above
KRAS^G12C-SOS1, sequence (P01116-2 other isoform, or with tags, fused parts or gaps G12C): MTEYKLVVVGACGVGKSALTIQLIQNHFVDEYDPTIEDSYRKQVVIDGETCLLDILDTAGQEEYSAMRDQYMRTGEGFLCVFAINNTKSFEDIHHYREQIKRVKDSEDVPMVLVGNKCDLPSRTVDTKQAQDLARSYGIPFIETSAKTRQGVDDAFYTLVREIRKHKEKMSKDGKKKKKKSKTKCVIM

Compound | IC50 ([1]; 72 h) | IC50 [2, 3] | IC50 (PI3Kδ; Table 1) | IC50 (KRAS^G12C-SOS1) | IC50 (PI3Kα; Table 1) | IC50 [1] | IC50 [2] | IC50 (PI3Kδ; Table 2) | IC50 (PI3Kα) | IC50 (PI3Kα; Table 2) | IC50 (PI3Kδ; Table 4) | IC50 (PI3Kα; Table 4)
COc1ncc(-c2ccc3ncnc(N4CCN(C(=O)/C=C/C(C)=O)CC4)c3c2)cc1NS(=O)(=O)c1ccc(F)cc1F [Example 6, (E)-2,4-difluoro-N-(2-methoxy-5-(4-(4-(4-oxopent-2-enoyl)piperazin-1-yl)quinazoline-6-yl)pyridin-3-yl)benzenesulfonamide] | 0.0156 µM | 0.018 µM | 0.0109 µM | 0.323 µM | – | – | – | – | – | – | – | –
C=CC(=O)N1CCN(c2ncnc3ccc(-c4cnc(OC)c(NS(=O)(=O)c5ccc(F)cc5F)c4)cc23)[C@@H](C)C1 [Example 7, (S)—N-(5-(4-(4-acryloyl-2-methylpiperazin-1-yl)quinazolin-6-yl)-2-methoxypyridin-3-yl)-2,4-difluorobenzenesulfonamide] | 0.0417 µM | 0.044 µM | 0.012 µM | – | 0.0014 µM | – | – | – | – | – | – | –
COc1ncc(-c2ccc3ncnc(N4CCN(C(=O)/C=C/n5ccnn5)CC4)c3c2)cc1NS(=O)(=O)c1ccc(F)cc1F [Example 10, (E)-N-(5-(4-(4-(3-(1H-1,2,3-triazol-1-yl)acryloyl)piperazin-1-yl)quinazolin-6-yl)-2-methoxypyridin-3-yl)-2,4-difluorobenzenesulfonamide] | 0.0866 µM | 0.0246 µM | 0.0167 µM | – | 0.00044 µM | – | – | – | – | – | – | –
COc1ncc(-c2ccc3ncnc(N4C[C@@H](C)N(C(=O)/C=C/C(C)=O)C[C@@H]4C)c3c2)cc1NS(=O)(=O)c1ccc(F)cc1F [Example 15, N-(5-(4-((2S,5R)-2,5-dimethyl-4-((E)-4-oxopent-2-enoyl)piperazin-1-yl)quinazolin-6-yl)-2-methoxypyridin-3-yl)-2,4-difluorobenzenesulfonamide] | 0.0621 µM | 0.0199 µM | 0.13 µM | 0.558 µM | 0.0102 µM | – | – | – | – | – | – | –
CCCC(=O)/C=C/C(=O)N1CCN(c2ncnc3ccc(-c4cnc(OC)c(NS(=O)(=O)c5ccc(F)cc5F)c4)cc23)CC1 [Example 17, (E)-2,4-difluoro-N-(2-methoxy-5-(4-(4-(4-oxohept-2-enoyl)piperazin-1-yl)quinazolin-6-yl)pyridin-3-yl)benzenesulfonamide] | 0.0533 µM | 0.0346 µM | 0.031 µM | 0.313 µM | 0.0023 µM | – | – | – | – | – | – | –
COc1ncc(-c2ccc3ncnc(N4CCC5(CC4)CN(C(=O)/C=C/C(C)=O)C5)c3c2)cc1NS(=O)(=O)c1ccc(F)cc1F [Example 20, (E)-2,4-difluoro-N-(2-methoxy-5-(4-(2-(4-oxopent-2-enoyl)-2,7-diazaspiro[3.5]nonan-7-yl)quinazolin-6-yl)pyridin-3-yl)benzenesulfonamide] | 0.0487 µM | 0.0262 µM | 0.212 µM | 0.239 µM | 0.0074 µM | – | – | – | – | – | – | –
COc1ncc(-c2ccc3ncnc(N4CCN(C(=O)/C=C/C(C)=O)CC4)c3c2)cc1NS(=O)(=O)c1c(F)cccc1F [Example 22, (E)-2,6-difluoro-N-(2-methoxy-5-(4-(4-(4-oxopent-2-enoyl)piperazin-1-yl)quinazolin-6-yl)pyridin-3-yl)benzenesulfonamide] | 0.0479 µM | 0.0237 µM | 0.0828 µM | 0.149 µM | 0.0116 µM | – | – | – | – | – | – | –
COc1ncc(-c2ccc3ncnc(N4CCC5(CN(C(=O)/C=C/C(C)=O)C5)C4)c3c2)cc1NS(=O)(=O)c1c(F)cccc1F [Example 42] | – | – | – | 0.109 µM | – | 0.132 µM | 0.079 µM | 0.0165 µM | 0.0015 µM | – | – | –
COc1ncc(-c2ccc3ncnc(N4CCN(C(=O)/C=C/C(C)=O)C[C@@H]4C)c3c2)cc1NS(=O)(=O)c1c(F)cccc1F [Example 46, (S,E)-2,6-difluoro-N-(2-methoxy-5-(4-(2-methyl-4-(4-oxopent-2-enoyl)piperazin-1-yl)quinazolin-6-yl)pyridin-3-yl) benzenesulfonamide] | 0.0278 µM | 0.0299 µM | – | 0.167 µM | – | – | – | 0.0363 µM | – | 0.0017 µM | – | –
COc1ncc(-c2ccc3ncnc(N4CCC5(CC4)CN(C(=O)/C=C/C(C)=O)C5)c3c2)cc1NS(=O)(=O)c1c(F)cccc1F [Example 49, (E)-2,6-difluoro-N-(2-methoxy-5-(4-(2-(4-oxopent-2-enoyl)-2,7-diazaspiro[3.5]nonan-7-yl)quinazolin-6-yl)pyridin-3-yl) benzenesulfonamide] | 0.0455 µM | 0.032 µM | – | 0.225 µM | – | – | – | 0.0149 µM | – | 0.0026 µM | – | –
COc1ncc(-c2ccc3ncnc(N4C[C@@H](C)N(C(=O)/C=C/C(C)=O)C[C@@H]4C)c3c2)cc1NS(=O)(=O)c1c(F)cccc1F [Example 51, N-(5-(4-((2S,5R)-2,5-dimethyl-4-((E)-4-oxopent-2-enoyl)piperazin-1-yl)quinazolin-6-yl)-2-methoxypyridin-3-yl)-2,6-difluorobenzene-sulfonamide] | 0.061 µM | 0.0487 µM | – | 0.942 µM | – | – | – | 0.0192 µM | – | 0.0056 µM | – | –
COc1ncc(-c2ccc3ncnc(N4CCN(C5CN(C(=O)/C=C/C(C)=O)C5)CC4)c3c2)cc1NS(=O)(=O)c1ccc(F)cc1F [Example 56, (E)-2,4-difluoro-N-(2-methoxy-5-(4-(4-(1-(4-oxopent-2-enoyl)azetidin-3-yl)piperazin-1-yl)quinazolin-6-yl)pyridin-3-yl)benzenesulfon-amide] | 0.117 µM | 0.0697 µM | – | 0.471 µM | – | – | – | 0.0372 µM | – | 0.0044 µM | – | –
COc1ncc(-c2ccc3ncnc(N4CCC5(CC=CC5=O)CC4)c3c2)cc1NS(=O)(=O)c1ccc(F)cc1F [Example 70, 2,4-difluoro-N-(2-methoxy-5-(4-(1-oxo-8-azaspiro[4,5]dec-2-en-8-yl)quinazolin-6-yl)pyridin-3-yl)benzenesulfonamide] | 0.0745 µM | 0.0584 µM | – | – | – | – | – | 0.035 µM | – | 0.0088 µM | – | –
COc1ncc(-c2ccc3ncnc(N4CCN(C(=O)/C=C/C(C)=O)CC4)c3c2)cc1NS(=O)(=O)c1cccc(F)c1F [Example 90, (E)-2,3-difluoro-N-(2-methoxy-5-(4-(4-(4-oxopent-2-enoyl)piperazin-1-yl)quinazolin-6-yl)pyridin-3-yl)benzenesulfonamide] | 0.0562 µM | 0.0545 µM | – | – | – | – | – | 0.0237 µM | – | 0.004 µM | – | –
COc1ncc(-c2ccc3ncnc(N4CCN(C(=O)/C=C/C(C)=O)CC4)c3c2)cc1NS(=O)(=O)c1ccccc1F [Example 91, (E)-2-fluoro-N-(2-methoxy-5-(4-(4-(4-oxopent-2-enoyl)piperazin-1-yl)quinazolin-6-yl)pyridin-3-yl)benzenesulfonamide] | 0.0839 µM | 0.0178 µM | – | 0.173 µM | – | – | – | 0.0615 µM | – | 0.0026 µM | – | –
COc1ncc(-c2ccc3ncnc(N4CCN(C(=O)/C=C/C(C)=O)CC4)c3c2)cc1NS(=O)(=O)c1ccc(C#N)cc1F [Example 123, (E)-4-cyano-2-fluoro-N-(2-methoxy-5-(4-(4-(4-oxopent-2-enoyl)piperazin-1-yl)quinazolin-6-yl)pyridin-3-yl)benzenesulfonamide] | 0.118 µM | 0.0212 µM | – | – | – | – | – | 0.0314 µM | – | 0.0091 µM | – | –
CC(=O)/C=C/C(=O)N1CCN(c2ncnc3ccc(-c4cnc(OCC(F)(F)F)c(NS(=O)(=O)c5ccc(F)cc5F)c4)cc23)CC1 [Example 159, (E)-2,4-difluoro-N-(5-(4-(4-(4-oxopent-2-enoyl)piperazin-1-yl)quinazolin-6-yl)-2-(2,2,2-trifluoroethoxy)pyridin-3-yl)benzenesulfonamide] | 0.361 µM | 0.172 µM | – | – | – | – | – | – | – | – | 0.0917 µM | 0.0118 µM
COc1ncc(-c2ccc3ncnc(N4CCN(C(=O)/C=C/C(C)=O)CC4)c3c2)cc1NS(C)(=O)=O [Example 170, (E)-N-(2-methoxy-5-(4-(4-(4-oxopent-2-enoyl)piperazin-1-yl)quinazolin-6-yl)pyridin-3-yl)methane-sulfonamide] | 0.38 µM | 0.0616 µM | – | – | – | – | – | – | – | – | 0.017 µM | 0.007 µM
COC(=O)c1ncc(-c2ccc3ncnc(N4CCN(C(=O)/C=C/C(C)=O)CC4)c3c2)cc1NS(=O)(=O)c1ccc(F)cc1F [Example 181, methyl (E)-3-((2,4-difluoro-phenyl)sulfonamido)-5-(4-(4-(4-oxopent-2-enoyl)piperazin-1-yl)quinazolin-6-yl)picolinate] | 0.284 µM | 0.0497 µM | – | – | – | – | – | – | – | – | 0.0204 µM | 0.00073 µM
[2H]C([2H])([2H])Oc1ncc(-c2ccc3ncnc(N4CCN(C(=O)/C=C/C(C)=O)CC4)c3c2)cc1NS(=O)(=O)c1ccc(F)cc1F [Example 191, (E)-2,4-difluoro-N-(2-(methoxy-d3)-5-(4-(4-(4-oxopent-2-enoyl)piperazin-1-yl)quinazolin-6-yl)pyridin-3-yl)benzene-sulfonamide] | 0.0364 µM | 0.0202 µM | – | 0.143 µM | – | – | – | – | – | – | 0.0167 µM | –

From patent US20250145589A1, “PYRIDINE DERIVATIVE AND USE THEREOF” (SICHUAN HUIYU PHARMACEUTICAL CO., LTD., priority 2021, published 2025)
